{
  "source": "patent US5716982A",
  "about": "“Retinoids and methods of use of same” (priority 1995, dated 1998)",
  "key": {"[1]": {"test_system": "human acute myeloid leukemia (AML), neuroblastoma, teratocarcinoma, melanoma, and rat rhabdomyosarcoma cells", "conditions": "Smith et al. 1992; cited from earlier work"}, "[2]": {"test_system": "bone abnormalities in mouse fetus", "test": "Bone abnormalities in mouse fetus (anti-teratogenicity)", "format": "in vivo", "protocol": "(§1) Female mice were examined by vaginal smear the morning after being caged with male mice, and if sperm or a vaginal plug was discovered, then the mice were determined to be pregnant. The retinoids were administered at the dosage indicated starting on the seventh day of pregnancy and continued once a day for the next ten days. On the 20th day after the female mice were determined to be pregnant, they were sacrificed by cervical dislocation. Both sides of the uterus were checked and the number of living embryos, dead embryos, and absorbed embryos were counted. The living embryos were further examined for bone abnormalities.\nAfter the embryos became transparent, they were dissected and their skeletons were checked by observation under a microscope."}, "fetus absorption in mice": {"test_system": "fetus absorption in mice", "test": "Fetus absorption in mice (anti-teratogenicity)", "format": "in vivo, mouse", "conditions": "15 mg/kg, 15 pregnant mice", "protocol": "as §1"}},
  "data": [
    {"smiles": "CC1=C(/C=C/C(C)=C/C=C/C(C)=C/C(=O)O)C(C)(C)CCC1", "note": "[All Trans RA, all-trans-retinoic acid, reference compound]", "values": [
      {"measurement": "cell differentiation", "setting": "[1]", "result": "induces cell differentiation in some human acute myeloid leukemia (AML), neuroblastoma, teratocarcinoma, melanoma, and rat rhabdomyosarcoma cells"},
      {"measurement": "Delayed Calcification, Occipital number/fetus number", "setting": "[2]; 10 mg/kg", "result": "16/16"},
      {"measurement": "Delayed Calcification, Sternum number/fetus number", "setting": "[2]; 10 mg/kg", "result": "16/16"},
      {"measurement": "Cleft Palate (%)", "setting": "[2]; 15 mg/kg", "result": 48, "unit": "%"},
      {"measurement": "Delayed Calcification (%), Occipital", "setting": "[2]; 15 mg/kg", "result": 96.0, "unit": "%"},
      {"measurement": "Delayed Calcification (%), Sternum", "setting": "[2]; 15 mg/kg", "result": 71.0, "unit": "%"},
      {"measurement": "Delayed Calcification, Occipital delay/fetus", "setting": "[2]; 101 mg/kg (so in the source)", "result": "6/16"},
      {"measurement": "Delayed Calcification, Sternum delay/fetus", "setting": "[2]; 101 mg/kg (so in the source)", "result": "16/16"},
      {"measurement": "Implanted Number", "setting": "fetus absorption in mice", "result": 186}
    ]}
  ]
}
